Results taken from patent US11931329B2, “Compositions and methods for treating anxiety-related disorders” (Yamo Pharmaceuticals LLC, priority 2019, dated 2024).

Tests used:
Type in all cases: in vivo, human
[1] = tested on: ASD patient with obsessive thoughts and compulsive behaviors; test: Case study demonstrating reduction of obsessions and compulsions (SUBJECT); conditions: L1-79 100-200 mg three times per day
Description: An ASD patient (SUBJECT) has a history of obsessive thoughts and compulsive behaviors that negatively impact their functioning. […]

[2] = tested on: patients diagnosed with Autistic Spectrum Disorder and one or more of Obsessive Compulsive Disorder and Attention Deficit/Hyperactivity Disorder; test: Double blinded, placebo controlled dose ranging study of L1-79 in autism: obsessive-compulsive symptoms (case studies)
Protocol: (§1) Study Title: A Double Blinded, Randomized, Placebo Controlled, Dose Ranging Study for the use of L1-79 in the Treatment of Autism
(§2) Study Design: Blinded, randomized, 4-arm, 4-week treatment period. Treatment arms consist of α-methyl-DL-tyrosine (i.e., L1-79) in doses of 100 mg, or 200 mg, or placebo tid.
(§3) Sample Size:N=30; randomized and 10 open label to 4 groups:
(§4) Study Population: Male subjects between the ages of 13 and 21 years of age, diagnosed with autism who that meet the entry criteria and who are able to complete standardized measures allowing them to participate in this study.
(§5) Major Inclusion Criteria: Males between 13 and 21 years of age, signed informed consent, normal clinical laboratory values, DSM-5 compliant diagnosis of autism spectrum disorder, confirmed by the Autistic Diagnosis Interview Review (ADIR), and by the Autism Diagnosis Observation Schedule (ADOS) score consistent with a diagnosis of autism. No more than one concomitant medication, stable concomitant medications for at least 2 weeks prior to enrollment and no planned changes in psychosocial interventions during the trial.
(§6) Major Exclusion Criteria: Any co-morbidities, including Fragile-X syndrome, epilepsy, Retts syndrome, ADHD, or other disease or syndrome aside from autism that requires treatment. Any other psychiatric disorder, or out of range lab values. DSM-5 diagnosis of schizophrenia, schizoaffective disorder, alcohol use disorder; active medical problems: unstable seizures (>2 in past month), significant physical illness;
(§7) Experimental Treatment: L1-79 at doses of 100 or 200 mg three times daily for 4 weeks.
(§8) Dosage and Administration: L1-79 or placebo, as randomized, were administered orally according to the regimen above.
(§9) Evaluation Schedule: Subjects were evaluated within one week prior to study accession, and weekly throughout the dosing period, and again 4 weeks after the cessation of treatment.
(§10) Study Endpoints: The primary end point was an assessment of the safety of L1-79 based upon reported adverse events and changes in baseline in physical examination parameters that included orthostatic blood pressure, clinical laboratory measures, and ECGs. Secondary endpoints will include the attending physicians assessment as quantified by the Clinical Global Impressions scale based upon changes from baseline in various psychometric tests, including the Vineland Adaptive Behavior Scale 2nd edition (VABS II, VABS) questionnaire, the Autism Diagnostic Observation Schedule (ADOS), the Aberrant Behavior Checklist-Community (ABC-C), the Spencer Anxiety Scale (SAS), the Repetitive Behavior Score-Revised (RBS-R), the Social Responsiveness Scale (SRS), as well as from their personal observations in the clinic, and from videographic information taken during ADOS testing (per this protocol) and anecdotally as provided by caregivers over the course of this study.
Obsessive-compulsive symptoms can include ritualistic and repetitive/restricted behaviors, and obsessive thinking make it difficult for the patient to complete a task or concentrate in a conversation.
All of the patients were receiving L1-79 100-200 mg three times a day. None of the patients in the OCD symptom improvement group were receiving medication for Obsessive Compulsive Disorder
Obsessive-compulsive symptoms were initially recorded at baseline, and at end of active treatment using the Repetitive Behavior Scale, the Spence Children's’ Anxiety Scale, the Social Responsiveness Scale, the Clinical Global Impression Scale and direct parent report.

[3] = tested on: patients diagnosed with Autistic Spectrum Disorder and one or more of Social Anxiety Disorder and Generalized Anxiety Disorder; test: Double blinded, placebo controlled dose ranging study of L1-79 in autism: social anxiety symptoms (case studies); conditions: for SRS/DSM-5 Social Communication scale range after treatment: after 4 weeks on L1-79
Protocol: as §1, §2, §3, §4, §5, §6, §7, §8, §9, §10
Social anxiety symptoms included one or more of fear associated with meeting and talking to people, avoidance of social situations that would elicit significant anxiety in the past, anxiety in anticipation of a social situation, and an inability to initiate conversation with others. The presence of the social anxiety symptoms was recorded at baseline using the Aberrant Behavior Checklist-Community, the Spence Children's Anxiety Scale, the Social Responsiveness Scale, and/or the Clinical Global Impression Scale and direct parent report.
All of the patients were receiving L1-79 100-200 mg three times a day. None of the patients in the Social Anxiety symptom improvement group were receiving medication for Social Anxiety Disorder

Question: With `CC(N)(Cc1ccc(O)cc1)C(=O)O` (racemic) [L1-79, α-methyl-DL-tyrosine] as the compound, how does the compulsive behaviors/routines [1] read?
Answer: could be delayed or skipped

Question: And the obsessive thoughts [1]?
Answer: significant decrease in obsessive thoughts

Question: And the “rigid and inflexible thinking” value [1]?
Answer: decrease in rigid and inflexible thinking

Question: What about the obsessive-compulsive symptoms ([2]; ASD patients with OCD and/or ADHD, L1-79 100-200 mg three times a day) of the same compound?
Answer: reductions in obsessive-compulsive symptoms

Question: What about the “SRS/DSM-5 Repetitive Behavior and Restrictive Interests score after treatment” value ([2]; Subject 02-002, baseline 96 (Severe), after treatment Moderate, L1-79 100-200 mg tid) of the same compound?
Answer: 73

Question: What about the “SRS/DSM-5 Repetitive Behavior and Restrictive Interests range after treatment” value ([2]; Subject 02-003, baseline Severe, week 4, L1-79 100-200 mg tid) of the same compound?
Answer: Moderate

Question: What about the “CGI-I, Stereotypic and Restricted Interests section” value ([2]; Subject 02-004, L1-79 100-200 mg tid) of the same compound?
Answer: Much Improved

Question: What about the “Spence Children's Anxiety Scale OCD score after treatment” value ([2]; Subject 02-007, baseline 3.0 (anxiety disordered children), 0 = normal/no OCD, L1-79 100-200 mg tid) of the same compound?
Answer: 0

Question: And the “SRS/DSM-5 subscale Repetitive Behaviors and Restricted Interests range after treatment” value ([2]; Subject 02-007, baseline Moderate, L1-79 100-200 mg tid)?
Answer: Within Normal Limits

Question: And the “CGI-I score (OCD symptoms)” value ([2]; Subject 02-012, L1-79 100-200 mg tid)?
Answer: Much Improved

Question: And the “SRS/DSM-5 Repetitive Behavior and Restrictive Interests score after treatment” value ([2]; Subject 02-012, baseline 80 (Severe), after treatment Within Normal Limits, L1-79 100-200 mg tid)?
Answer: 46

Question: And the “SRS/DSM-5 Repetitive Behavior and Restrictive Interests score after treatment” value ([2]; Subject 02-16, baseline 65 (Mild), after treatment Within Normal Limits, L1-79 100-200 mg tid)?
Answer: 46

Question: What about the “CGI-Severity scale, Stereotyped Behaviors and Restricted Interests, after treatment” value ([2]; Subject 02-16, baseline Mildly Ill, L1-79 100-200 mg tid) of the same compound?
Answer: Normal

Question: And the “SRS/DSM-5 Repetitive Behavior and Restrictive Interests score after treatment” value ([2]; Subject 02-020, baseline 85 (Severe), after treatment Moderate, L1-79 100-200 mg tid)?
Answer: 73

Question: And the “obsessive interest / preoccupation in conversation” value ([2]; one patient who could talk only about their obsessive interest at baseline, after 4 weeks on active drug)?
Answer: able to have conversations about things of interest to others

Question: And the self-injurious compulsive behaviors ([2]; one patient with self-injurious compulsive behaviors at baseline, after 3 weeks on active drug)?
Answer: completely stopped self-injury

Question: What about the anxiety-related symptoms ([2]; patients with OCD or SAD in the L1-79 autism study, 100 or 200 mg tid, 4 weeks, oral) of the same compound?
Answer: improved anxiety-related symptoms

Question: What about the social-anxiety symptoms ([3]; ASD patients with SAD and/or GAD, L1-79 100-200 mg three times a day) of the same compound?
Answer: reductions in social-anxiety symptoms

Question: And the “ABC-C Social Withdrawal after treatment” value ([3]; Subject 02-002, baseline 98%, L1-79 100-200 mg tid)?
Answer: 75%

Question: What about the “SRS/DSM-5 Social Communication scale range after treatment” value ([3]; Subject 02-002, baseline Severe) of the same compound?
Answer: Moderate

Question: What about the “CGI-I, Social Interaction and Communication” value ([3]; Subject 02-002, week 4) of the same compound?
Answer: Much Improved

Question: And the “ABC-C Social Withdrawal after treatment” value ([3]; Subject 02-007, baseline 75%, week 4 of treatment)?
Answer: < 40%

Question: What about the “ABC-C Social Withdrawal after treatment” value ([3]; Subject 02-009, baseline 91%, week 4 of treatment with L1-79) of the same compound?
Answer: 63%

Question: What about the “ABC-C Social Withdrawal after treatment” value ([3]; Subject 02-012, baseline 84%, L1-79 100-200 mg tid) of the same compound?
Answer: < 40%

Question: And the “CGI-Severity Score after treatment” value ([3]; Subject 02-012, baseline Moderately Ill)?
Answer: Borderline Ill

Question: And the “SRS/DSM-5 Social Communication scale range after treatment” value ([3]; Subject 02-012, baseline Severe)?
Answer: Within Normal Limits

Question: What about the “CGI-I, Social Interaction and Communication” value ([3]; Subject 02-012, week 4) of the same compound?
Answer: Much Improved

Question: And the “CGI-I, Social Interactions and Communication area” value ([3]; Subject 02-014, L1-79 100-200 mg tid)?
Answer: Much Improved

Question: What about the “CGI-Severity score, Social Interaction area, after treatment” value ([3]; Subject 02-014, baseline Markedly Ill) of the same compound?
Answer: Moderately Ill

Question: And the “SRS/DSM-5 Social Communication scale range after treatment” value ([3]; Subject 02-016, baseline Mildly Deficient)?
Answer: Within Normal Limits

Question: And the “CGI-Severity Score, Social Interaction and Communication, after treatment” value ([3]; Subject 02-016, baseline Mildly Ill)?
Answer: Normal

Question: What about the “CGI-I, Social Interaction and Communication” value ([3]; Subject 02-016, week 4) of the same compound?
Answer: Much Improved

Question: What about the “CGI-I, Social Interaction and Communication” value ([3]; Subject 02-022, week 4 of treatment with L1-79) of the same compound?
Answer: Much Improved
